{"source": "patent US20120321584A1", "about": "“PROCESSES FOR PREPARING AMINE SALTS OF KMUP-3 AND USE THEREOF” (KAOHSIUNG MEDICAL UNIVERSITY, priority 2011, published 2012)", "key": {"[1]": {"test_system": "isolated spontaneously beating right atrium", "assay": "Spontaneously beating right atrium, organ bath", "type": "cell-based, guinea-pig", "settings": "atropine 1 μM; 7-nitroindazole 100 μM", "protocol": "(§1) Organ bath experiments and tissue procurement. Guinea-pigs were killed by a blow on the head. Their hearts were quickly excised and trimmed of excess tissues. The atrium was carefully removed and placed at room temperature (20˜25° C.) in a Krebs solution of the following composition (mM): NaCl 113, KCl 4.8, CaCl2 2.2, KH2PO4 1.2, MgCl2 1.2, NaHCO3 25, dextrose 11.0; bubbled with a 95% O2+5% CO2 mixture, followed by separation of right and left atrium for subsequent experiments.\nSpontaneously beating right atrium was dissected from the heart and mounted in a 10 ml organ bath with one end fixed and the other end connected to a force displacement transducer (Grass, Model FT03). The frequency of contraction was measured on a separate channel by a tachometer (Coulbourn, Model S77-26) connected to a high-speed videograph (Coulbourn, AT L19-69). These experiments were carried out at 32.5° C. in Krebs solution. The atria strip was pre-stretched to a baseline tension of 0.5 g and equilibrated for 90 min in aerated (95% O2+5% CO2) Krebs solution before the experimental protocols were initiated. The atria were then allowed a 30-60 min washout period to re-stabilize. KMUP-3 or KMUP-3 amine salt (0.1, 1.0, 10, 100 μM) were then cumulatively added to the organ bath. […]"}, "[2]": {"test_system": "electrically-stimulated left atria", "assay": "Electrically-stimulated beating left atrium, organ bath", "type": "cell-based, guinea-pig", "settings": "for Effect of pretreatment on KMUP-3-induced contractility: sGC inhibitor ODQ, eNOS inhibitor L-NAME", "protocol": "as §1\nQuiescent left atria free of connective tissues were dissected and mounted in an organ bath under a resting tension of 0.5 g. Organs were bathed at 32.5° C. in aerated Krebs solution and electrically stimulated with 1 Hz at […] via two platinum electrodes placed at either side. The positive inotropic effect was measured by determining the cumulative concentration-response curves in the presence of KMUP-3 or KMUP-3 amine salt (0.1, 1.0, 10, 100 μM). To examine the possible involvement of NO and cAMP/cGMP in the action of KMUP-3 or KMUP-3 amine salt on electrically-stimulated beating atria, pre-incubated with a ROCK inhibitor Y27632 (1.0 μM), a β-adrenoceptor blocker propranolol (1.0 μM), eNOS inhibitors L-NAME (100 μM), 7-nitroindazole (100 μM) and 5-HT inhibitor ketanserin (1.0 μM) was performed for 15 min prior to the addition of KMUP-3 or KMUP-3 amine salt to measure the development of beating force and heart rate for 10 min."}, "eNOS [3]": {"test_system": "eNOS", "assay": "Protein expression of eNOS by optical density after KMUPs salts (Table 2)", "type": "cell-based", "settings": "KMUPs salts 10 μM, 120 min; vehicle (without treatment) = 100 %", "protocol": "(§2) Protein extraction and Western blotting analysis. Briefly, after incubation with test agents in an organ bath, isolated beating atrium was frozen and pulverized to a fine powder at the temperature of liquid nitrogen. Atrium powders were then homogenized in protein extraction reagent (Pierce Biotechnology, Inc., Rockford, Ill.) by sonication. The samples were sonicated 10 sec three times and centrifuged at 13,000 rpm at 4° C. for 30 min. The protein concentrations of supernatants were determined by using bovine serum albumin as the standard. The cell extracts were then boiled in a ratio of 4:1 with sample buffer (Tris 100 mM, pH 6.8; glycerol 20%, Sodium dodecyl sulfate (SDS) 4% and bromophenol blue 0.2%). Electrophoresis was performed using 10% SDS-PAGE and transferred to nitrocellulose membranes (Millipore Corp., Billerica, Mass.). The membrane was blocked with Tris-buffered saline (TBS; 20 mM Tris and 137 mM NaCl, pH 7.6) containing 0.1% Tween 20 (TTBS) and 5% nonfat milk at room temperature for 1 h, washed with TTBS, and then incubated overnight at 4° C. in the appropriate primary antibody for PKARI, RhoA, ROCKII, p-CIP-17, CPI-17 and PKG1α1β. […] The intensity of the bands was measured by densitometry. eNOS or phosphorylated eNOS were extracted from cell culture of neonatal myocytes, PA ring and aortic ring (2-3 mm) of rats and measured by Western blotting analysis."}, "PDE-3": {"test_system": "PDE-3", "assay": "Protein expression of PDE-3 by optical density after KMUPs salts (Table 2)", "type": "cell-based", "settings": "KMUPs salts 10 μM, 120 min; vehicle (without treatment) = 100 %", "protocol": "as §2"}, "PDE-4": {"test_system": "PDE-4", "assay": "Protein expression of PDE-4 by optical density after KMUPs salts (Table 2)", "type": "cell-based", "settings": "KMUPs salts 10 μM, 120 min; vehicle (without treatment) = 100 %", "protocol": "as §2"}, "PDE-5": {"test_system": "PDE-5", "assay": "Protein expression of PDE-5 by optical density after KMUPs salts (Table 2)", "type": "cell-based", "settings": "KMUPs salts 10 μM, 120 min; vehicle (without treatment) = 100 %", "protocol": "as §2"}, "ROCKII": {"test_system": "ROCKII", "assay": "Protein expression of ROCKII by optical density after KMUPs salts (Table 2)", "type": "cell-based", "settings": "KMUPs salts 10 μM, 120 min; vehicle (without treatment) = 100 %", "protocol": "as §2"}, "L-type Ca2+ channels": {"test_system": "L-type Ca2+ channels", "assay": "Ca2+ entry currents in H9c2 cells, whole cell patch-clamp", "type": "cell-based, rat", "settings": "KMUP-3 10 μM with KT5823 3 μM or Y27642 50 μM", "text": "To measure the ICa through L-type Ca^2+ channels, whole cell patch-clamp electrophysiology was used in rat heart-derived H9c2 cells as previously described. In brief, H9c2 cells were placed in a recording dish and perfused with a bath solution containing (in mM): 135 tetraethylammonium (TEA)-Cl, 1.8 CaCl2, 2 MgCl2, 10 glucose, and 10 HEPES (pH 7.4, Tris). […] Negative pressure was briefly applied to rupture the membrane and a gigaohm seal was obtained.\nH9c2 cells were clamped at −80 mV with step depolarizations (300 ms) from −80 to 0 mV to evoke whole-cell ICa. Voltage clamped cells were equilibrated for 15 min prior to experimentation. Membrane currents were recorded on an Axopatch 700A amplifier (Axon Instruments, Union City, Calif.), filtered at 1 kHz using a low-pass Bessel filter, digitized at 5 kHz and stored on a computer for subsequent analysis with Clampfit 9.0. Following equilibration, ICa was monitored in the presence and absence of KMUP-3 or KMUP-3 amine salt (1, 10, 100 μM). To ascertain whether PKG or ROCK signaling was involved in the KMUP-3-induced decreases in ICa, H9c2 cells were incubated for 15 min with the combination of KMUP-3 or KMUP-3 amine salt (10 μM) and PKG antagonist KT5823 (3 μM) or ROCK inhibitor Y-27632 (50 μM). All electrical recordings were performed at room temperature."}, "PKG": {"test_system": "PKG", "assay": "PKG expression in beating left atrium, Western blotting", "type": "cell-based, guinea-pig", "settings": "L-NAME pretreatment", "protocol": "as §2, with “Mass.).” for “Mass.). The membrane was blocked with Tris-buffered saline (TBS; 20 mM Tris and 137 mM NaCl, pH 7.6) containing 0.1% Tween 20 (TTBS) and 5% nonfat milk at room temperature for 1 h, washed with TTBS, and then incubated overnight at 4° C. in the appropriate primary antibody for PKARI, RhoA, ROCKII, p-CIP-17, CPI-17 and PKG1α1β.”\nPK, ROCKII and CIP-17 expression and pretreatment of beating left atrium. To examine whether KMUP-3 or KMUP-3 amine salt affects the protein expression in beating atrium, PKA, ROCKII, PKG and phosphorylated CIP-17 was determined by Western blotting, respectively. […]"}, "eNOS [4]": {"test_system": "eNOS", "assay": "eNOS expression in neonatal myocytes, Western blotting", "type": "cell-based, rat", "settings": "L-NAME 100 μM pretreatment", "protocol": "(§3) eNOS/p-NOS and cAMP/cGMP in neonatal myocytes. To determine the role of the NO/cGMP-pathway in heart, neonatal rat myocyte protein was extracted followed by Western blotting to measure the expression of eNOS, phosphorylated eNOS (p-eNOS), cAMP, and cGMP (FIG. 14 A-14 B and FIG. 15 A-15 B). KMUP-3 increased eNOS and p-eNOS in neonatal rat cardiomyocytes and the effect was reduced by L-NAME (100 μM)-pretreatment (FIG. 14A and FIG. 14B). KMUP-3 increased both cAMP and cGMP.\n(§4) Protein extraction and Western blotting analysis. Briefly, after incubation with test agents in an organ bath, isolated beating atrium was frozen and pulverized to a fine powder at the temperature of liquid nitrogen. Atrium powders were then homogenized in protein extraction reagent (Pierce Biotechnology, Inc., Rockford, Ill.) by sonication. The samples were sonicated 10 sec three times and centrifuged at 13,000 rpm at 4° C. for 30 min. The protein concentrations of supernatants were determined by using bovine serum albumin as the standard. […] The intensity of the bands was measured by densitometry. eNOS or phosphorylated eNOS were extracted from cell culture of neonatal myocytes, PA ring and aortic ring (2-3 mm) of rats and measured by Western blotting analysis."}, "[5]": {"test_system": "phosphorylated eNOS (p-eNOS)", "assay": "Phosphorylated eNOS expression in neonatal myocytes, Western blotting", "type": "cell-based, rat", "settings": "L-NAME 100 μM pretreatment", "protocol": "as §3, §4"}}, "note": "Structures can show the parent of a compound that is named as a salt."}
{"smiles": "O=[N+]([O-])c1cccc2cn[nH]c12", "note": "[7-nitroindazole]", "values": [{"measurement": "Effect of pretreatment on the beating frequency decreased by KMUP-3", "setting": "[1]", "value": "up-regulated"}, {"measurement": "Effect of combination on left atria contractility increased by KMUP-3", "setting": "[2]; KMUP-3 10 μM with 7-nitroindazole 100 μM", "value": "reduced"}]}
{"smiles": "Cn1c(=O)c2c(ncn2CCN2CCN(c3ccc([N+](=O)[O-])cc3)CC2)n(C)c1=O", "note": "[KMUP-3-HCl]", "values": [{"measurement": "eNOS protein expression, optical density (%)", "setting": "eNOS [3]", "value": "138 ± 5.2", "unit": "%"}, {"measurement": "PDE-3 protein expression, optical density (%)", "setting": "PDE-3", "value": "55 ± 2.5", "unit": "%"}, {"measurement": "PDE-4 protein expression, optical density (%)", "setting": "PDE-4", "value": "48 ± 2.1", "unit": "%"}, {"measurement": "PDE-5 protein expression, optical density (%)", "setting": "PDE-5", "value": "48 ± 1.9", "unit": "%"}, {"measurement": "ROCKII protein expression, optical density (%)", "setting": "ROCKII", "value": "42 ± 2.2", "unit": "%"}]}
{"smiles": "COC(=O)[C@@]1(OC)C[C@H]2O[C@]1(C)n1c3ccccc3c3c4c(c5c6ccccc6n2c5c31)C(=O)N(C)C4", "note": "[KT5823]", "values": [{"measurement": "Effect of combination on currents reduced by KMUP-3", "setting": "L-type Ca2+ channels", "value": "restored"}]}
{"smiles": "COC(=O)[C@@H](N)CCCNC(=N)N[N+](=O)[O-]", "note": "[L-NAME]", "values": [{"measurement": "Effect of pretreatment on KMUP-3-induced positive inotropic activity", "setting": "[2]; propranolol and Y27632 1 μM, C3 exoenzyme 50 μg/mL, ketanserin 1.0 μM, L-NAME 100 μM", "value": "reduced"}, {"measurement": "Effect of pretreatment on KMUP-3-induced contractility", "setting": "[2]", "value": "inhibited"}, {"measurement": "Effect of pretreatment on expression of PKG", "setting": "PKG", "value": "reduced"}, {"measurement": "Effect of pretreatment on KMUP-3-increased eNOS", "setting": "eNOS [4]", "value": "reduced"}, {"measurement": "Effect of pretreatment on KMUP-3-increased p-eNOS", "setting": "[5]", "value": "reduced"}]}
{"smiles": "O=c1onc2cnc3ccccc3n12", "note": "[ODQ]", "values": [{"measurement": "Effect of pretreatment on KMUP-3-induced contractility", "setting": "[2]", "value": "inhibited"}]}
